Like-named read-outs stand apart in the source and are kept apart here.
Legend:
[1] = test system: peroxisomes (pDsRed2-Peroxi Vector labelled compartments); conditions: photo-bleaching at 514 nm, complex excited at 405 nm (FIG. 4)
Method: FIG. 4: Co-localisation experiment with Clontech pDsRed2-Peroxi Vector. […] Fluorescence micrographs of co-localisation experiment i) Excited at 405 nm pre-photo-bleaching; ii) excited at 514 nm pre photo-bleaching iii) excited at 514 nm post photo-bleaching; iv) Excited at 405 nm post photo-bleaching. HaCaT cells were grown on glass coverslips under the same conditions as in described in Steel 2015 referred to herein. […] The coverslips were then washed in PBS and mounted by inversion on a glass slide. Images were captured on a Zeiss LSM 850 Meta laser scanning confocal microscope.

HaCaT cells = HaCaT cells with and without microtubule-depolymerising levels of nocodazole (FIG. 2)
Method: HaCaT cells were grown on glass coverslips under the same conditions as in described in Steel 2015 referred to herein. […] The coverslips were then washed in PBS and mounted by inversion on a glass slide. Images were captured on a Zeiss LSM 850 Meta laser scanning confocal microscope.

[2] = test system: peroxisomes in HaCaT cells
Method: FIG. 1: Chemical structure of a compound of the invention (and the compound referred to in the figures for example as the platinum complex) and confocal micrograph of HaCaT cells after 10 minutes exposure to 25 μg/ml of the platinum complex (ex 405 nm, emission 505-740 nm). […] A compound of the invention may be prepared as a salt, for example as a sodium salt as described herein, and is used as an imaging agent in a buffer solution. HaCaT cells were grown on glass coverslips under the same conditions as in described in Steel 2015 referred to herein. […] The coverslips were then washed in PBS and mounted by inversion on a glass slide. Images were captured on a Zeiss LSM 850 Meta laser scanning confocal microscope.

[3] = PBS containing compound at 125 μg/ml, 10 minutes at 4° C.

PtMe3bpy-S-glutathione [compound A]
co-localisation with peroxisome marker [1]: platinum complex emission was retained in the same cellular compartments
motility of the stained compartments (HaCaT cells): microtubule-dependent motility
staining pattern ([2]; 10 minutes exposure to 25 μg/ml, ex 405 nm, emission 505-740 nm (FIG. 1)): punctate pattern
staining pattern [2, 3]: punctate staining pattern, characteristic of peroxisomes
uptake by cells [2, 3]: readily taken up by cells

From patent publication US11408891B2, “Imaging agent” (University of Lancaster, priority 2017, dated 2022)
